pIC50: −log10 of the molar value.
The compounds below were run against T1, human RORγt (Ligand Binding Domain) (Homo sapiens, UniProt P51449) (assay: Fluorescence Polarization (FP) Assay). Conditions: 100 nM human RORγt LBD, 25 nM TAMRA probe, values are activity range bounds.
T1 construct: purchased Crelux (Planegg, Germany) batch no PC5032-1
T1 sequence (P51449 269-508 limits assumed): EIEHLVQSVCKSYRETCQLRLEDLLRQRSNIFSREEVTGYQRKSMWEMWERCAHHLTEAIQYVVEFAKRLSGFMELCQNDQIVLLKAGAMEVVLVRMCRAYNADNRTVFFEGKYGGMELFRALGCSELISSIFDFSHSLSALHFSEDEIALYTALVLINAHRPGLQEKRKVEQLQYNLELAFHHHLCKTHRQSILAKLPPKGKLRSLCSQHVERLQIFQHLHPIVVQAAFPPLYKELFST
Method: (§1) The activity of the compounds was evaluated using a Fluorescence Polarization (FP) Assay and, RORγ Reporter assay (also referred to as Gal4 assay). The FP assay is an in vitro assay monitoring binding within the ligand binding pocket. The RORγ and the Th17 assays (another suitable assay) are both cell-based assays monitoring functional activity of the compound assayed.
Fluorescence Polarization (FP) Assay
The total volume was 25 μl, in a black Perkin Elmer OptiPlate. As negative control, 1 μl DMSO was used. […] The probe is a fluorescently labeled (TAMRA) RORγt ligand identified by Nuevolution with a total molecular weight of 910 g/mole as shown in Graph A in FIG. 1.

Row | pIC50 | Structure (SMILES)
1 | > 6.00 | Fc1c(NCc2ccsc2)ncnc1N(Cc1ccc(C(F)(F)F)cc1)C1CC1 [Example A21, N6-cyclopropyl-5-fluoro-N4-(3-thienylmethyl)-N6-[[4-(trifluoromethyl)phenyl]methyl] pyrimidine-4,6-diamine]
2 | > 6.30 | COc1ccc(CNc2ncnc(N(Cc3ccc(C(F)(F)F)cc3)C3CC3)c2F)cn1 [Example A25, N6-cyclopropyl-5-fluoro-N4-[(6-methoxy-3-pyridyl)methyl]-N6-[[4-(trifluoromethyl)phenyl]methyl] pyrimidine-4,6-diamine]
3 | > 6.30 | OCC1(CNc2ncnc(N(Cc3ccc(C(F)(F)F)cc3)C3CC3)c2F)COC1 [Example A26, [3-[[[6-[cyclopropyl-[[4-(trifluoromethyl)phenyl]methyl]amino]-5-fluoro-pyrimidin-4-yl]amino]methyl]oxetan-3-yl]methanol]
4 | > 6.30 | OC1(CNc2ncnc(N(Cc3ccc(C(F)(F)F)cc3)C3CC3)c2F)CCSCC1 [Example A30, 4-[[[6-[cyclopropyl-[[4-(trifluoromethyl)phenyl]methyl]amino]-5-fluoro-pyrimidin-4-yl]amino]methyl]tetrahydrothiopyran-4-ol]
5 | > 6.30 | CC(C)C1CCC(CNc2ncnc(N(Cc3ccc(C(F)(F)F)cc3)C3CC3)c2F)CC1 (stereo not shown) [Example A33, N6-cyclopropyl-5-fluoro-N4-[(4-isopropylcyclohexyl)methyl]-N6-[[4-(trifluoromethyl)phenyl]methyl] pyrimidine-4,6-diamine]
6 | > 6.30 | O=S1(=O)CCC(CNc2ncnc(N(Cc3ccc(C(F)(F)F)cc3)C3CC3)c2F)CC1 [Example A34, N6-cyclopropyl-N4-[(1,1-dioxothian-4-yl)methyl]-5-fluoro-N6-[[4-(trifluoromethyl)phenyl]methyl] pyrimidine-4,6-diamine]
7 | > 6.30 | O=C(O)CC1CCC(CNc2ncnc(N(Cc3ccc(C(F)(F)F)cc3)C3CC3)c2F)CC1 (stereo not shown) [Example A36, 2-[4-[[[6-[cyclopropyl-[[4-(trifluoromethyl)phenyl]methyl]amino]-5-fluoro-pyrimidin-4-yl]amino]methyl]cyclohexyl]acetic acid]
8 | > 6.00 | Fc1c(NCc2ccccc2)ncnc1N(Cc1ccc(C(F)(F)F)cc1)C1CC1 [Example A40, N6-benzyl-N4-cyclopropyl-5-fluoro-N4-[[4-(trifluoromethyl)phenyl]methyl] pyrimidine-4,6-diamine]

The next lines start with the compound.

Row | Structure (SMILES) | pIC50
9 | OCCC1(CNc2ncnc(N(Cc3ccc(C(F)(F)F)cc3)C3CC3)c2F)CCOCC1 [Example A22, 2-[4-[[[6-[cyclopropyl-[[4-(trifluoromethyl)phenyl]methyl]amino]-5-fluoro-pyrimidin-4-yl]amino]methyl]tetrahydropyran-4-yl]ethanol] | > 6.30
10 | Fc1c(NCc2ccc(-c3nnn[nH]3)cc2)ncnc1N(Cc1ccc(C(F)(F)F)cc1)C1CC1 [Example A23, N6-cyclopropyl-5-fluoro-N4-[[4-(1H-tetrazol-5-yl)phenyl]methyl]-N6-[[4-(trifluoromethyl)phenyl]methyl] pyrimidine-4,6-diamine] | > 6.30
11 | COc1ccc(CN(C)c2ncnc(N(Cc3ccc(C(F)(F)F)cc3)C3CC3)c2F)cn1 [Example A24, N6-cyclopropyl-5-fluoro-N4-[(6-methoxy-3-pyridyl)methyl]-N4-methyl-N6-[[4-(trifluoromethyl)phenyl]methyl] pyrimidine-4,6-diamine] | > 6.30
12 | CN(C)C(=O)C1(CNc2ncnc(N(Cc3ccc(C(F)(F)F)cc3)C3CC3)c2F)CCCC1 [Example A27, 1-[[[6-[cyclopropyl-[[4-(trifluoromethyl)phenyl]methyl]amino]-5-fluoro-pyrimidin-4-yl]amino]methyl]-N,N-dimethyl-cyclopentanecarboxamide] | > 6.00
13 | Fc1c(NCC2CCCS2)ncnc1N(Cc1ccc(C(F)(F)F)cc1)C1CC1 (stereo not shown) [Example A28, N6-cyclopropyl-5-fluoro-N4-(tetrahydrothiophen-2-ylmethyl)-N6-[[4-(trifluoromethyl)phenyl]methyl] pyrimidine-4,6-diamine] | > 6.00
14 | COC1(CNc2ncnc(N(Cc3ccc(C(F)(F)F)cc3)C3CC3)c2F)CCOCC1 [Example A29, N6-cyclopropyl-5-fluoro-N4-[(4-methoxytetrahydropyran-4-yl)methyl]-N6-[[4-(trifluoromethyl)phenyl]methyl] pyrimidine-4,6-diamine] | > 6.30
15 | CS(=O)(=O)CC1(CNc2ncnc(N(Cc3ccc(C(F)(F)F)cc3)C3CC3)c2F)CCOCC1 [Example A31, N6-cyclopropyl-5-fluoro-N4-[[4-(methylsulfonylmethyl)tetrahydro-pyran-4-yl]methyl]-N6-[[4-(trifluoromethyl)phenyl]methyl] pyrimidine-4,6-diamine] | > 6.30
16 | CC1CCC(CNc2ncnc(N(Cc3ccc(C(F)(F)F)cc3)C3CC3)c2F)CC1 (stereo not shown) [Example A32, N6-cyclopropyl-5-fluoro-N4-[(4-methylcyclohexyl)methyl]-N6-[[4-(trifluoromethyl)phenyl]methyl] pyrimidine-4,6-diamine] | > 6.30
17 | O=S1(=O)CCOC(CNc2ncnc(N(Cc3ccc(C(F)(F)F)cc3)C3CC3)c2F)C1 (stereo not shown) [Example A35, N6-cyclopropyl-N4-[(4,4-dioxo-1,4-oxathian-2-yl)methyl]-5-fluoro-N6-[[4-(trifluoromethyl)phenyl]methyl] pyrimidine-4,6-diamine] | > 6.30
18 | CS(=O)(=O)Cc1ccc(CNc2ncnc(N(Cc3ccc(C(F)(F)F)cc3)C3CC3)c2F)cc1 [Example A37, N4-cyclopropyl-5-fluoro-N6-[[4-(methylsulfonylmethyl)phenyl]methyl]-N4-[[4-(trifluoromethyl)phenyl]methyl] pyrimidine-4,6-diamine] | > 6.30
19 | COc1cc(CNc2ncnc(N(Cc3ccc(C(F)(F)F)cc3)C3CC3)c2F)ccn1 [Example A38, N4-cyclopropyl-5-fluoro-N6-[(2-methoxy-4-pyridyl)methyl]-N4-[[4-(trifluoromethyl)phenyl]methyl] pyrimidine-4,6-diamine] | > 6.30
20 | N#Cc1ccc(CNc2ncnc(N(Cc3ccc(C(F)(F)F)cc3)C3CC3)c2F)cc1 [Example A39, 4-[[[6-[cyclopropyl-[[4-(trifluoromethyl)phenyl]methyl]amino]-5-fluoro-pyrimidin-4-yl]amino]methyl]benzonitrile] | > 6.30

The compounds below were run against T2, ligand binding domain of human RORγ (Homo sapiens, UniProt P51449) (assay: RORγ Reporter Assay (Gal4)). Conditions: HEK-293T, 1 μM test compound, HEK293t RORγ reporter cells, 24 hour; read-out: Gal4 activity range @ 1 μM (% inhibition).
T2 construct: host or cells: HEK293t
T2 sequence (P51449 269-508 limits assumed): T1 sequence (P51449 269-508 limits assumed)
Format: cell-based
Method: as §1
RORγ Reporter Assay (Gal4)
Cell-based RORγ functional assays were performed using a commercially available assay product (INDIGO Biosciences, State College, Pa., USA; product # IB04001). The RORγ reporter cells are HEK293t cells transfected with one vector that provides high level constitutive expression of a hybrid protein comprised of the yeast Gal4-DNA binding domain fused to the ligand binding domain of human RORγ, and a second vector comprising the firefly luciferase cDNA functionally linked to the upstream activation sequence (UAS) of yeast Gal4. A suspension of RORγ Reporter Cells was prepared using the protocol and culture medium provided in the kit product, and 100 μl of the Reporter Cell suspension was then dispensed into wells of a white, collagen-treated, 96-well assay plate. Concentrated stocks of test compounds were prepared in DMSO, then further diluted using media provided in the kit to generate ‘2×-concentration’ treatment media. 100 μl of medium for each respective treatment concentration dispensed into triplicate assay wells, thereby combining with the reporter cells. All media formulations contained 10% charcoal stripped Fetal Bovine Serum, but are otherwise proprietary to INDIGO Biosciences. Final treatment concentrations for each test compound were 1,000 nM and 100 nM, each with 0.1% residual DMSO. Separate control treatments were media supplemented with vehicle only (0.1% DMSO) to determine the constitutive level of RORγ activity in the reporter cells, and the reference inverse-agonist ursolic acid (f.c. 6,000 nM to 8.2 nM in 3-fold decrements) to establish a positive control inverse-agonist dose response. Assay plates were placed in a 37° C., 5% CO2, 85% humidity incubator for 24 hour. Treatment media were then discarded, 100 μl of luciferase detection reagent was added to each well, and relative light units (RLUs) were quantified from each assay well using a plate reading luminometer. Values of average RLU+/−standard deviation were computed for all treatment sets, followed by the calculations of fold-reduction: [Average RLUVehicle/Average RLUTest Cmpd]. Percent-reduction of RORγ activity in response to respective test compound treatments was calculated: [100*(1−[Ave RLUTest Cmpd/Ave RLUVehicle)] where the theoretical minimum reduction (0% reduction) derives from Vehicle treatment only, no treatment compound. In some aspects it may be of interest to provide compounds with selective modulation of RORγ for example compounds that are selective to RORγ over RORα, compounds that are selective for RORγ versus RORPβ, and compounds that are selective for RORγ versus BOTH RORα and RORPβ. It may also be of interest to provide compounds that are selective for RORγ versus further nuclear hormone receptors such as CAR1, FXR, GR, LXRα, LXRβ, PPARα, PXR, RARα, RXRα, TRα, VDR. It is apparent to those skilled in the art that these nuclear hormone receptors are merely examples, and that selectivity against other nuclear receptors may also be of interest. It may for example be of interest to provide compounds that modulate RORγ and one or more further nuclear hormone receptors, as well as compounds that modulate both RORγ and RORα, or RORγ and RORβ. It may also be of interest to provide compounds that modulate RORγ and BOTH RORα and RORP, as well as compounds that modulate both RORγ and one or more further nuclear hormone receptors such as CAR1, FXR, GR, LXRα, LXRβ, PPARα, PXR, RARα, RXRα, TRα, VDR. It is apparent to those skilled in the art that these nuclear hormone receptors are merely examples, and that modulation of even other nuclear receptors may also be of interest. […]

Row | inhibition at 1 µM [%] | Structure (SMILES)
21 | > 80 | CS(=O)(=O)CC1(CNc2ncnc(N(Cc3ccc(C(F)(F)F)cc3)C3CC3)c2F)CCOCC1 [Example A49, N6-cyclopropyl-5-fluoro-N4-[[4-(methylsulfonylmethyl)tetrahydro-pyran-4-yl]methyl]-N6-[[4-(trifluoromethyl)phenyl]methyl] pyrimidine-4,6-diamine]

Same assay, conditions: RORγ Reporter Assay (Gal4), HEK293t reporter cells, compound at 0.1 μM; values are activity range bounds

Row | Gal4 activity range @ 0.1 μM (% inhibition) | Structure (SMILES)
22 | >80 | CS(=O)(=O)CC1(CNc2ncnc(N(Cc3ccc(C(F)(F)F)cc3)C3CC3)c2F)CCOCC1 [Example A49, N6-cyclopropyl-5-fluoro-N4-[[4-(methylsulfonylmethyl)tetrahydro-pyran-4-yl]methyl]-N6-[[4-(trifluoromethyl)phenyl]methyl] pyrimidine-4,6-diamine]
